Test results from PubChem BioAssay (NCI).
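Step 1: Grow cells in 96-well plates. Step 2: Expose to compound for 48 hours at 5 concentrations. Step 3: Interpolate endpoints linearly; if unreached, use highest concentration. TGI denotes the concentration required for complete inhibition of growth.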

Legend:
Experiment in all cases: NCI anticancer screen, dose series, 48 h
UO-31 renal = system: UO-31 renal
A549 NSCLC = system: A549 NSCLC
M14 melanoma = system: M14 melanoma
DU-145 prostate = system: DU-145 prostate
OVCAR-4 ovarian = system: OVCAR-4 ovarian
EKVX NSCLC = system: EKVX NSCLC
RXF 393 renal = system: RXF 393 renal
SN12C renal = system: SN12C renal
IGROV1 ovarian = system: IGROV1 ovarian
786-0 renal = system: 786-0 renal
MDA-MB-231 breast = system: MDA-MB-231 breast
K-562 leukemia = system: K-562 leukemia
UACC-62 melanoma = system: UACC-62 melanoma
MALME-3M melanoma = system: MALME-3M melanoma
KM12 colon = system: KM12 colon
SK-MEL-2 melanoma = system: SK-MEL-2 melanoma
SF-539 CNS = system: SF-539 CNS
COLO 205 colon = system: COLO 205 colon
SNB-75 CNS = system: SNB-75 CNS
HOP-92 NSCLC = system: HOP-92 NSCLC
NCI-H522 lung = system: NCI-H522 lung
T-47D breast = system: T-47D breast
HL-60(TB) leukemia = system: HL-60(TB) leukemia
A498 renal = system: A498 renal
OVCAR-5 ovarian = system: OVCAR-5 ovarian
MDA-N = system: MDA-N
NCI-H460 lung = system: NCI-H460 lung
CAKI-1 renal = system: CAKI-1 renal
OVCAR-3 ovarian = system: OVCAR-3 ovarian
SK-MEL-28 melanoma = system: SK-MEL-28 melanoma
HCC-2998 colon = system: HCC-2998 colon
HCT-116 colon = system: HCT-116 colon
U251 CNS = system: U251 CNS
RPMI-8226 leukemia = system: RPMI-8226 leukemia
MOLT-4 leukemia = system: MOLT-4 leukemia
HCT-15 colon = system: HCT-15 colon
LOX IMVI melanoma = system: LOX IMVI melanoma
SR leukemia = system: SR leukemia
MDA-MB-435 = system: MDA-MB-435
SNB-19 CNS = system: SNB-19 CNS
HOP-62 NSCLC = system: HOP-62 NSCLC
SF-268 CNS = system: SF-268 CNS
NCI-H23 lung = system: NCI-H23 lung
UACC-257 melanoma = system: UACC-257 melanoma
TK-10 renal = system: TK-10 renal
ACHN renal = system: ACHN renal
SK-MEL-5 melanoma = system: SK-MEL-5 melanoma
PC-3 prostate = system: PC-3 prostate
SF-295 CNS = system: SF-295 CNS
SW-620 colon = system: SW-620 colon
HS 578T breast = system: HS 578T breast
SK-OV-3 ovarian = system: SK-OV-3 ovarian
MCF7 breast = system: MCF7 breast
NCI-H226 lung = system: NCI-H226 lung
HT29 colon = system: HT29 colon
BT-549 breast = system: BT-549 breast

Compound: CCOc1ccccc1-c1nc2c(s1)C(=O)c1ccccc1C2=O
- TGI (UO-31 renal): 25.4 µM
- TGI (A549 NSCLC): 36.9 µM
- TGI (M14 melanoma): 36.7 µM
- TGI (DU-145 prostate): 36.5 µM
- TGI (OVCAR-4 ovarian): 35 µM
- TGI (EKVX NSCLC): 41.2 µM
- TGI (RXF 393 renal): 31.5 µM
- TGI (SN12C renal): > 100 µM
- TGI (IGROV1 ovarian): 27.7 µM
- TGI (786-0 renal): 30.5 µM
- TGI (MDA-MB-231 breast): 12.7 µM
- TGI (K-562 leukemia): 32.4 µM
- TGI (UACC-62 melanoma): 13.8 µM
- TGI (MALME-3M melanoma): 19.8 µM
- TGI (KM12 colon): 29.8 µM
- TGI (SK-MEL-2 melanoma): 30 µM
- TGI (SF-539 CNS): 40.9 µM
- TGI (COLO 205 colon): 58.9 µM
- TGI (SNB-75 CNS): 25.6 µM
- TGI (HOP-92 NSCLC): 25 µM
- TGI (NCI-H522 lung): 97.7 µM
- TGI (T-47D breast): 63.9 µM
- TGI (HL-60(TB) leukemia): 4.4 µM
- TGI (A498 renal): 29.4 µM
- TGI (OVCAR-5 ovarian): 40.1 µM
- TGI (MDA-N): 6.5 µM
- TGI (NCI-H460 lung): 39.2 µM
- TGI (CAKI-1 renal): 26.7 µM
- TGI (OVCAR-3 ovarian): 8.01 µM
- TGI (SK-MEL-28 melanoma): 30.4 µM
- TGI (HCC-2998 colon): 29.5 µM
- TGI (HCT-116 colon): 29.3 µM
- TGI (U251 CNS): 27.7 µM
- TGI (RPMI-8226 leukemia): 54.8 µM
- TGI (MOLT-4 leukemia): > 100 µM
- TGI (HCT-15 colon): > 100 µM
- TGI (LOX IMVI melanoma): 16.7 µM
- TGI (SR leukemia): > 100 µM
- TGI (MDA-MB-435): 4.31 µM
- TGI (SNB-19 CNS): 65.3 µM
- TGI (HOP-62 NSCLC): 28.7 µM
- TGI (SF-268 CNS): 29 µM
- TGI (NCI-H23 lung): 31 µM
- TGI (UACC-257 melanoma): 27.3 µM
- TGI (TK-10 renal): 34.4 µM
- TGI (ACHN renal): 29.2 µM
- TGI (SK-MEL-5 melanoma): 18.7 µM
- TGI (PC-3 prostate): 29.6 µM
- TGI (SF-295 CNS): 25.1 µM
- TGI (SW-620 colon): 23.4 µM
- TGI (HS 578T breast): 62.3 µM
- TGI (SK-OV-3 ovarian): 28.2 µM
- TGI (MCF7 breast): 46.3 µM

Compound: CN(C)c1ccc(/C=C2\N=C(N/N=C/c3ccccc3O)NC2=O)cc1
- TGI (DU-145 prostate): > 100 µM
- TGI (RXF 393 renal): 55.9 µM
- TGI (SN12C renal): > 100 µM
- TGI (NCI-H226 lung): 41.1 µM
- TGI (HT29 colon): > 100 µM
- TGI (COLO 205 colon): > 100 µM
- TGI (SNB-75 CNS): 89.7 µM
- TGI (HOP-92 NSCLC): 59.7 µM
- TGI (A498 renal): 61.7 µM
- TGI (OVCAR-5 ovarian): > 100 µM
- TGI (MDA-N): > 100 µM
- TGI (SK-MEL-28 melanoma): 62.7 µM
- TGI (HCC-2998 colon): > 100 µM
- TGI (BT-549 breast): > 100 µM
- TGI (RPMI-8226 leukemia): > 100 µM
- TGI (MDA-MB-435): > 100 µM
- TGI (SNB-19 CNS): > 100 µM
- TGI (HOP-62 NSCLC): 53 µM
- TGI (SF-268 CNS): > 100 µM
- TGI (TK-10 renal): 59.4 µM
- TGI (HS 578T breast): > 100 µM
